The IC50 is the concentration that inhibits the measured activity by half. A lower IC50 goes with higher potency.

Each structure is given as a SMILES string.

Consider 15 compounds from ChEMBL document CHEMBL3098074, “Synthesis and tumor cell growth inhibitory activity of biotinylated annonaceous acetogenins” (Eur J Med Chem, 2014).

Experiment [1] deals with L1210. The experiment in a line: Selectivity index, ratio of IC50 for mouse L1210 cells to IC50 for mouse P815 cells. It is filed as functional.
Experiment [2] concerns L1210. The experiment in a line: Cytotoxicity against mouse L1210 cells after 72 hrs by MTT assay. It is filed as functional, cell-based. As to conditions: L1210, 72 h. On the technique in general: Tetrazolium assays rely on reduction of a dye to a coloured formazan, in cell work by metabolically active cells.
Experiment [3] deals with L1210. As to the kind of experiment: Selectivity index, ratio of IC50 for mouse L1210 cells to IC50 for mouse 4T1 cells. Type of experiment: functional.
Experiment [4] concerns 4T1. The experiment in a line: Cytotoxicity against mouse 4T1 cells expressing biotin receptor after 72 hrs by MTT assay. It is filed as functional, cell-based. As to conditions: 4T1, 72 h.
Experiment [5] has as its system P815. The experiment in a line: Cytotoxicity against mouse P815 cells expressing biotin receptor after 72 hrs by MTT assay. It is filed as functional, cell-based. The settings on record: P815, 72 h.

In the case of `CCCCCC[C@H](O)CCC[C@H](OC(=O)CCCCCNC(=O)CCCC[C@@H]1SC[C@@H]2NC(=O)N[C@@H]21)[C@H]1CC[C@H]([C@H]2CC[C@H]([C@H](O)CCCCCCCCCCCCC3=C[C@H](C)OC3=O)O2)O1`, the “Ratio IC50” value in experiment [1] is given as under 0.069; in experiment [3] it was 0.9. The figures for the concentration for half-maximal inhibition (IC50) in experiment [2], in experiment [4] and in experiment [5] were 1380 nM, 1540 nM and over 20000 nM, respectively.

Turning to `CCCCCC[C@@H](CCC[C@H](O)[C@H]1CC[C@H]([C@H]2CC[C@H]([C@@H](CCCCCCCCCCCCC3=C[C@H](C)OC3=O)OC(=O)CCCC[C@@H]3SC[C@@H]4NC(=O)N[C@@H]43)O2)O1)OC(=O)CCCC[C@@H]1SC[C@@H]2NC(=O)N[C@@H]21`, the “Ratio IC50” value in experiment [1] is under 0.063; in experiment [3] it was 0.26. Besides, the IC50 is 1250 nM in experiment [2], 4870 nM in experiment [4] and over 20000 nM in experiment [5].

As for `CCCCCC[C@H](O)CCC[C@H](O)[C@H]1CC[C@H]([C@H]2CC[C@H]([C@@H](CCCCCCCCCCCCC3=C[C@H](C)OC3=O)OC(=O)CCCCCNC(=O)CCCC[C@@H]3SC[C@@H]4NC(=O)N[C@@H]43)O2)O1`, the results for the “Ratio IC50” value in experiment [1] and in experiment [3] were 0.48 and 14.94, respectively. The results for the IC50 in experiment [2], in experiment [4] and in experiment [5] were 1150 nM, 77 nM and 2410 nM, respectively.

As for `CCCCCCCCCC[C@@H](O)[C@@H]1CC[C@@H]([C@@H]2CC[C@@H]([C@H](O)CCCCCCCCCC(O)CC3=CC(C)OC3=O)O2)O1` (stereo not given in full) [BULLATACIN], the “Ratio IC50” value in experiment [1] came to 0.67; in experiment [3], 21.09. Moreover, the values for the IC50 in experiment [2], in experiment [4] and in experiment [5] were 2320 nM, 110 nM and 3480 nM, respectively.

As for `CCCCCCCCCC[C@H](O)[C@H]1CC[C@H]([C@H]2CC[C@H]([C@@H](CCCCCCCCCC[C@H](CC3=C[C@H](C)OC3=O)OC(=O)CCCCCNC(=O)CCCC[C@@H]3SC[C@@H]4NC(=O)N[C@@H]43)OC(=O)CCCCCNC(=O)CCCC[C@@H]3SC[C@@H]4NC(=O)N[C@@H]43)O2)O1`, the “Ratio IC50” value is recorded as under 0.1 in experiment [1] and 1.92 in experiment [3]. In addition, the IC50 in experiment [2] was 2040 nM; in experiment [4], 1060 nM; in experiment [5], over 20000 nM.

For `CCCCCC[C@@H](CCC[C@H](O)[C@H]1CC[C@H]([C@H]2CC[C@H]([C@H](O)CCCCCCCCCCCCC3=C[C@H](C)OC3=O)O2)O1)OC(=O)CCCCCNC(=O)CCCC[C@@H]1SC[C@@H]2NC(=O)N[C@@H]21`, the “Ratio IC50” value is given as under 0.034 in experiment [1] and 0.1 in experiment [3]. In addition, the figures for the IC50 in experiment [2], in experiment [4] and in experiment [5] were 680 nM, 6570 nM and over 20000 nM, respectively.

As to `CCCCCC[C@@H](CCC[C@H](OC(=O)CCCCCNC(=O)CCCC[C@@H]1SC[C@@H]2NC(=O)N[C@@H]21)[C@H]1CC[C@H]([C@H]2CC[C@H]([C@H](O)CCCCCCCCCCCCC3=C[C@H](C)OC3=O)O2)O1)OC(=O)CCCCCNC(=O)CCCC[C@@H]1SC[C@@H]2NC(=O)N[C@@H]21`, the “Ratio IC50” value in experiment [1] is under 0.059; in experiment [3] it was 0.63. In addition, the results for the IC50 in experiment [2], in experiment [4] and in experiment [5] were 1180 nM, 1870 nM and over 20000 nM, respectively.

With `CCCCCCCCCC[C@H](O)[C@H]1CC[C@H]([C@H]2CC[C@H]([C@H](O)CCCCCCCCCC[C@H](CC3=C[C@H](C)OC3=O)OC(=O)CCCCCNC(=O)CCCC[C@@H]3SC[C@@H]4NC(=O)N[C@@H]43)O2)O1`, the results for the “Ratio IC50” value in experiment [1] and in experiment [3] were 2.39 and 39.62, respectively. Besides, the figures for the IC50 in experiment [2], in experiment [4] and in experiment [5] were 2100 nM, 53 nM and 880 nM, respectively.

Turning to `CCCCCC[C@H](O)CCC[C@H](OC(=O)CCCC[C@@H]1SC[C@@H]2NC(=O)N[C@@H]21)[C@H]1CC[C@H]([C@H]2CC[C@H]([C@H](O)CCCCCCCCCCCCC3=C[C@H](C)OC3=O)O2)O1`, the “Ratio IC50” value in experiment [1] is on record as under 0.048; in experiment [3], 1.52. Further, the IC50 is 960 nM in experiment [2], 630 nM in experiment [4] and over 20000 nM in experiment [5].

Turning to `CCCCCC[C@@H](CCC[C@H](OC(=O)CCCC[C@@H]1SC[C@@H]2NC(=O)N[C@@H]21)[C@H]1CC[C@H]([C@H]2CC[C@H]([C@H](O)CCCCCCCCCCCCC3=C[C@H](C)OC3=O)O2)O1)OC(=O)CCCC[C@@H]1SC[C@@H]2NC(=O)N[C@@H]21`, the results for the “Ratio IC50” value in experiment [1] and in experiment [3] were under 0.28 and 19.62, respectively. The results for the IC50 in experiment [2], in experiment [4] and in experiment [5] were 5690 nM, 290 nM and over 20000 nM, respectively.

Consider `CCCCCC[C@@H](CCC[C@H](O)[C@H]1CC[C@H]([C@H]2CC[C@H]([C@H](O)CCCCCCCCCCCCC3=C[C@H](C)OC3=O)O2)O1)OC(=O)CCCC[C@@H]1SC[C@@H]2NC(=O)N[C@@H]21`, for which the “Ratio IC50” value in experiment [1] is 0.62; in experiment [3], 16.94. Also, the IC50 in experiment [2] is 830 nM; in experiment [4], 49 nM; in experiment [5], 1340 nM.

`CCCCCCCCCC[C@H](O)[C@H]1CC[C@H]([C@H]2CC[C@H]([C@H](O)CCCCCCCCCC[C@H](CC3=C[C@H](C)OC3=O)OC(=O)CCCC[C@@H]3SC[C@@H]4NC(=O)N[C@@H]43)O2)O1`: the “Ratio IC50” value in experiment [1] is listed as under 0.071; in experiment [3] it was 2.18. Moreover, the values for the IC50 in experiment [2], in experiment [4] and in experiment [5] were 1420 nM, 650 nM and over 20000 nM, respectively.

For `CCCCCC[C@H](O)CCC[C@H](OC(=O)CCCCCNC(=O)CCCC[C@@H]1SC[C@@H]2NC(=O)N[C@@H]21)[C@H]1CC[C@H]([C@H]2CC[C@H]([C@@H](CCCCCCCCCCCCC3=C[C@H](C)OC3=O)OC(=O)CCCCCNC(=O)CCCC[C@@H]3SC[C@@H]4NC(=O)N[C@@H]43)O2)O1`, the “Ratio IC50” value in experiment [1] stood at 0.9; in experiment [3], 2.47. The IC50 in experiment [2] was 840 nM; in experiment [4], 340 nM; in experiment [5], 930 nM.

On to `CCCCCCCCCC[C@H](O)[C@H]1CC[C@H]([C@H]2CC[C@H]([C@@H](CCCCCCCCCC[C@@H](O)CC3=C[C@H](C)OC3=O)OC(=O)CCCC[C@@H]3SC[C@@H]4NC(=O)N[C@@H]43)O2)O1`, for which the “Ratio IC50” value is listed as 0.88 in experiment [1] and 32.62 in experiment [3]. Further, the IC50 in experiment [2] was found to be 1370 nM; in experiment [4], 42 nM; in experiment [5], 1550 nM.

For `CCCCCCCCCC[C@H](OC(=O)CCCC[C@@H]1SC[C@@H]2NC(=O)N[C@@H]21)[C@H]1CC[C@H]([C@H]2CC[C@H]([C@H](O)CCCCCCCCCC[C@@H](O)CC3=C[C@H](C)OC3=O)O2)O1`, the results for the “Ratio IC50” value in experiment [1] and in experiment [3] were under 0.29 and 3.47, respectively. Also, the IC50 in experiment [2] is 5790 nM; in experiment [4], 1670 nM; in experiment [5] it was over 20000 nM.
